# According to US11890350B2, “Steroid acid-peptide based cytotoxic compounds” (DEFENCE THERAPEUTICS INC., priority 2021, dated 2024):
# Peptide text beside a SMILES is read from it. * marks the point of attachment. Cholyl = C[C@H](CCC(=O)*)[C@H]1CC[C@H]2[C@@H]3[C@H](O)C[C@@H]4C[C@H](O)CC[C@]4(C)[C@H]3C[C@H](O)[C@]12C
# What was measured:
# EL4 lymphoma [1] = experiment: EL4 tumor model in vivo; design: species or system C57BL/6 mice; conditions: for survival at day 40 / tumor growth: alone
# Description: FIGS. 4A to 4F show the antitumoral effect of CA-SV40 on EL4 lymphoma in vivo. […] EL4 tumors without any treatment (i.e., PBS) are shown in black, whereas anti-PD-1 treatment alone is in orange and anti-CTLA-4 treatment alone is in purple. […]
# Female C57BL/6 mice (n=10/group) received a SC injection of 5×10^5 EL4 cells at Day 0. Five days later (appearance of palpable tumors˜40-60 mm^3), mice were SC-injected with PBS, CA-SV40, anti-PD-1, or anti-CTLA4, alone or in combination.
# The apoptosis observations obtained in vitro prompted us to explore whether CA-SV40 administration to mice with pre-established tumors can trigger a therapeutic effect. First, CA-SV40 was delivered alone using three different doses (47 μM, 95 μM, and 190 μM) every 48 h following the appearance of palpable tumors (EL4) (FIG. 4A) for a total of 5 injections. […] To further improve this response, we next combined the highest tested CA-SV40 dose (delivered daily instead of every 48 h) with the immune-checkpoint inhibitors (ICIs) anti-PD-1 or anti-CTLA4 (FIG. 4D). […]
# EL4 lymphoma cells [2] = experiment: Annexin V apoptosis assessment by flow cytometry; format: cell-based; conditions: 190 μM
# Procedure: Annexin-V staining percentage after treatment with different Cholic acid-NLS conjugates (190 μM) is shown relative to live EL4 lymphoma cells (i.e., PBS treated cancer cells) by flow cytometry.
# [3] = tested on: CT-26 colon carcinoma cells; experiment: Annexin V apoptosis assessment by flow cytometry; format: cell-based; conditions: 190 μM
# 4T1 breast cancer cells = experiment: Annexin V apoptosis assessment by flow cytometry; format: cell-based; conditions: 4T-1; 190 μM
# mesenchymal stem cells = experiment: Annexin V apoptosis assessment on normal cells; format: cell-based; conditions: 190 μM
# macrophages = experiment: Annexin V apoptosis assessment on normal cells; format: cell-based; conditions: 190 μM
# [4] = tested on: bone marrow-derived dendritic cells; experiment: Annexin V apoptosis assessment on normal cells; format: cell-based, mouse; conditions: 190 μM
# Procedure: Mouse bone marrow derived DCs (BMDCs) were generated by flushing the whole marrow from mouse femurs using RPMI™ 1640 supplemented with 10% fetal bovine serum (FBS), 50 U/mL Penicillin-Streptomycin, 2 mM L-glutamine, 10 mM HEPES, 1% MEM Non-essential Amino Acids, 1 mM Sodium Pyruvate, 0.5 mM β-mercaptoethanol. Following red blood cell lysis, cells were then cultured in media supplemented with 50 ng/mL murine recombinant GM-CSF. The media was changed on days 2, 4, 6 and 8. On day 9, the media was replaced to include recombinant murine GM-CSF and LPS from Escherichia coli O111 (1 ng/mL) to stimulate DC maturation. Mature DCs were assessed by flow cytometry for their surface expression of CD3, CD19, NK1.1, CD11c, CD80, CD86, and I-A^b.
# EL4 lymphoma [5] = experiment: PI / Annexin-V co-staining time course; format: cell-based
# Procedure: (§1) Percentages of double-positive stained cells is shown, which represents late apoptotic cells.
# (§2) To further uncover the mechanism of cell death, we next investigated whether CA-SV40-triggered apoptosis is strictly occurring in the absence of necrosis. To do so, a co-staining experiment was conducted using propidium iodine (PI) and Annexin-V at different time points. […] Since a large number of anti-cancer molecules can trigger cell death via release or de novo production of reactive oxygen species (ROS), we next stained the EL4 lymphoma cells treated with CA-SV40 at the IC50 dose with MitoSOX™. […] This observation led us to test whether treatment with MitoTempo™ (blocking mitochondria-specific ROS) or N-acetylcysteine (NAC—building block for GSH) rescue from CA-SV40-triggered cell death.
# EL4 lymphoma cells [6] = experiment: MitoSOX staining for ROS production; format: cell-based; conditions: CA-SV40 at the IC50 dose, up to 8 h
# Procedure: as §1, §2
# EL4 cells = experiment: Cytochrome C cargo release cell death assay; format: cell-based
# Procedure: FIGS. 3A and 3B show the ability of CA-SV40 to promote cargo release in the cytoplasm of target cells.
# Cytochrome C is a protein that is normally entrapped in the mitochondria but can be released upon intrinsic signaling known to trigger apoptosis. An experiment was designed where recombinant cytochrome C was added to EL4 cells either alone or in combination with CA-SV40 (47 μM) (FIG. 3A). […] In addition, it may explain the increase in intracellular ROS levels as it can damage endosomes/vesicles responsible for intracellular ROS transport.
# EL4 lymphoma cells [7] = experiment: Rescue from CA-SV40-triggered apoptosis by ROS blockers; format: cell-based
# Procedure: as §1, §2
# EL4 T-cell lymphoma = experiment: Cell death (kill) curve analysis by flow cytometry; conditions: alone, at any of the concentrations tested
# [8] = highest tested dose (190 μM), every 48 h, 5 injections
molecule,measurement,setting,value
CSCC[C@H](NC(=O)[C@H](CS)NC(=O)CC[C@@H](C)[C@H]1CC[C@H]2[C@@H]3[C@H](O)C[C@@H]4C[C@H](O)CC[C@]4(C)[C@H]3C[C@H](O)[C@]12C)C(=O)NCC(=O)N[C@@H](CCCNC(=N)N)C(=O)N[C@H](C(=O)N[C@@H](CCCNC(=N)N)C(=O)N[C@H](C(=O)N[C@@H](CCCCN)C(=O)N[C@H](C(=O)N[C@H](C(=O)N[C@@H](CCCCN)C(=O)N[C@@H](CCCCN)C(=O)N[C@@H](C)C(=O)N[C@@H](C)C(=O)NCC(=O)NCC(=O)O)C(C)C)[C@@H](C)O)[C@@H](C)O)C(C)C [CA-NLS1 RPS17] (Cholyl-CMGRVRTKTVKKAAGG-OH; N-terminus and C-terminus assumed),survival at day 40,EL4 lymphoma [1]; [8],20%
same,tumor growth,EL4 lymphoma [1]; [8],significantly delayed tumor growth
CC[C@H](C)[C@H](NC(=O)[C@H](CCCNC(=N)N)NC(=O)[C@H](CCCCN)NC(=O)[C@H](CCSC)NC(=O)[C@H](CC(C)C)NC(=O)[C@H](Cc1c[nH]cn1)NC(=O)[C@@H](NC(=O)[C@@H](NC(=O)[C@H](Cc1ccc(O)cc1)NC(=O)CNC(=O)[C@H](C)NC(=O)[C@@H](NC(=O)[C@H](CCCCN)NC(=O)[C@H](CC(N)=O)NC(=O)[C@H](CCCNC(=N)N)NC(=O)[C@H](CC(C)C)NC(=O)[C@H](CCCCN)NC(=O)[C@H](CCCCN)NC(=O)[C@H](CO)NC(=O)[C@H](CS)NC(=O)CC[C@@H](C)[C@H]1CC[C@H]2[C@@H]3[C@H](O)C[C@@H]4C[C@H](O)CC[C@]4(C)[C@H]3C[C@H](O)[C@]12C)[C@@H](C)CC)C(C)C)[C@@H](C)O)C(=O)O [CA-NLS3 RPS17] (Cholyl-CSKKLRNKIAGYVTHLMKRI-OH; N-terminus and C-terminus assumed),survival at day 40,EL4 lymphoma [1]; [8],20%
same,tumor growth,EL4 lymphoma [1]; [8],significantly delayed tumor growth
CC(C)[C@H](NC(=O)[C@H](CCCCN)NC(=O)[C@H](CCCNC(=N)N)NC(=O)[C@H](CCCCN)NC(=O)[C@H](CCCCN)NC(=O)[C@H](CCCCN)NC(=O)[C@@H]1CCCN1C(=O)CNC(=O)[C@H](Cc1ccc(O)cc1)NC(=O)CNC(=O)[C@H](CS)NC(=O)CC[C@@H](C)[C@H]1CC[C@H]2[C@@H]3[C@H](O)C[C@@H]4C[C@H](O)CC[C@]4(C)[C@H]3C[C@H](O)[C@]12C)C(=O)NCC(=O)NCC(=O)O [CA-SV40] (Cholyl-CGYGPKKKRKVGG-OH; N-terminus and C-terminus assumed),cell death through apoptosis (Annexin V staining),EL4 lymphoma cells [2],triggers cell death through apoptosis
same,cytotoxicity compared with CA-GWG-SV40,EL4 lymphoma cells [2],notably higher
same,cell death through apoptosis (Annexin V staining),[3],triggers cell death through apoptosis
same,cell death through apoptosis (Annexin V staining),4T1 breast cancer cells,triggers cell death through apoptosis
same,apoptosis in normal cells,mesenchymal stem cells,induce apoptosis
same,apoptosis in normal cells,macrophages,induce apoptosis
same,apoptosis in normal cells,[4],induce apoptosis
same,time at which apoptosis started occurring post-treatment,EL4 lymphoma [5]; PI/Annexin-V,1 h
same,time to complete death,EL4 lymphoma [5]; PI/Annexin-V,8 h
same,necrotic cells (PI+/Annexin V−),EL4 lymphoma [5]; time course,no necrotic cells
same,ROS production (MitoSOX signal),EL4 lymphoma cells [6],time-dependent ROS production
same,increase in cell death,EL4 cells; CA-SV40 47 μM combined with cytochrome C,three-fold
same,cell death,EL4 cells; CA-SV40 47 μM in combination with cytochrome C,61%
same,cell death,"EL4 cells; before combination (weak CA-SV40 dose, 47 μM)",19%
same,antitumoral response,"EL4 lymphoma [1]; highest dose daily, combined with anti-PD-1 or anti-CTLA4, vs CA-SV40 alone",significantly enhanced the antitumoral response
same,tumor growth,EL4 lymphoma [1]; highest dose delivered daily,significant delays in tumor growth
same,tumor growth,EL4 lymphoma [1]; [8],significantly delayed tumor growth
"CC(=O)N[C@@H](CS)C(=O)O [NAC, N-acetylcysteine]",rescue from CA-SV40-triggered apoptosis,EL4 lymphoma cells [7]; CA-SV40 at IC50 dose,completely blocked apoptosis
same,rescue from CA-SV40-triggered apoptosis,EL4 lymphoma cells [7]; CA-SV40 at higher doses (IC100),incomplete but significant blockade
"SV40 NLS: NLS from SV-40 large T-antigen (e.g., PKKKRKV), unconjugated negative control",cytotoxic activity,EL4 T-cell lymphoma,did not exhibit any cytotoxic activity
"cytochrome C: recombinant cytochrome C protein, cargo added to EL4 cells [reference compound]",cell death,EL4 cells; recombinant cytochrome C alone,did not trigger cell death
